# In patent publication US5733913A, “6-Aryl pyrido[2,3-d] pyrimidines and naphthyridines for inhibiting protein tyrosine kinase mediated cellular proliferation” (priority 1995, dated 1998):
# Legend:
# [1] = target: T1, mouse PDGF-β receptor tyrosine kinase (Mus musculus, UniProt P05622); assay: PDGF receptor tyrosine kinase assay; assay type: biochemical; conditions: for IC50: read-out: Inhibition of Protein Tyrosine Kinases, PDGF, IC50; for inhibition at 50 µM: read-out: Inhibition of Protein Tyrosine Kinases, PDGF, % Inhibition
# T1 construct: a fragment of DNA that codes for the intracellular tyrosine kinase domain; made in house; host or cells: Sf9 insect cells (baculovirus), cell lysate
# T1 sequence (P05622 599-961 limits assumed): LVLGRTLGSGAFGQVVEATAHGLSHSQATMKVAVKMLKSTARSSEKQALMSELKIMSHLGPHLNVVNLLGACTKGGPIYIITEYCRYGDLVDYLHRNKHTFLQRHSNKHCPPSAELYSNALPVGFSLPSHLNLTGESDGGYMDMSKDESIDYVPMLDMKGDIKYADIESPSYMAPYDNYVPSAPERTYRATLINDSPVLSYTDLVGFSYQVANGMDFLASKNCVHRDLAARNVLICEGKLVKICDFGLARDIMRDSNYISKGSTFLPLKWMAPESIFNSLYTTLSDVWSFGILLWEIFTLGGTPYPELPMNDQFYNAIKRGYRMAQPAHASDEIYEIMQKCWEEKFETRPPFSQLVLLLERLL
# Procedure, shortened: (§1)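 Intracellular kinase domains expressed in baculovirus-infected SF9 cells; crude lysate used as enzyme. Inhibitor preincubated 10 min at 25 °C with lysate in pH 7.0 Hepes buffer with 10 mM MnCl2 and poly(Glu-Tyr) 4:1, then γ-32P-ATP (50 μM ATP) added for 10 min at 25 °C. TCA-precipitated 32P on filters counted, no-enzyme background subtracted.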
# [2] = target: T2, human FGF-1 (flg) receptor tyrosine kinase (Homo sapiens, UniProt P11362); assay: FGF receptor tyrosine kinase assay; assay type: biochemical; conditions: for IC50: read-out: Inhibition of Protein Tyrosine Kinases, FGF, IC50
# T2 construct: a fragment of DNA that codes for the intracellular tyrosine kinase domain; made in house; host or cells: Sf9 insect cells (baculovirus), cell lysate
# T2 sequence (P11362 478-767 limits assumed): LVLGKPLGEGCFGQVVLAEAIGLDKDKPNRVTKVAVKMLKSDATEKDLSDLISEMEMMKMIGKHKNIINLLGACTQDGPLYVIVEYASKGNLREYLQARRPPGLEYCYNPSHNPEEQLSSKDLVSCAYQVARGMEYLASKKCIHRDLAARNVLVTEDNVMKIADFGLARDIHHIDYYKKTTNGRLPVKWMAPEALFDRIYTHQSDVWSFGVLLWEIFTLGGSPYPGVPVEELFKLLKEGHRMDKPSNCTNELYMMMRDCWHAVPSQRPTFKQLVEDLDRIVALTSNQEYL
# Procedure, shortened: as §1
# C-src kinase = target: T3, C-src kinase (Homo sapiens, UniProt P12931); assay: C-src kinase assay; assay type: biochemical; conditions: for IC50: read-out: Inhibition of Protein Tyrosine Kinases, C-src, IC50
# T3 construct: made in house; host or cells: baculovirus-infected insect cells
# Procedure, shortened: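 Baculovirus-expressed c-src immunopurified on antibody-coated latex beads, assayed in 40 mM Tris pH 7.5, 5 mM MgCl2 with poly GluTyr substrate and 5 μM ATP plus 32P-ATP. Reaction 10 min at room temperature, TCA-quenched, filtered; incorporated label counted by scintillation.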
# PDGF receptor = PDGF receptor autophosphorylation in RASMC; assay type: cell-based, rat; conditions: PDGF-BB 30 ng/mL, read-out: Inhibition of PDGF Stimulated Receptor Auto Phosphorylation (IC50)
# Protocol: Rat aorta smooth muscle cells (RASMC) were isolated from the thoracic aorta of rats and explanted according to the method of Ross, J. Cell. […] Cells were grown in Dulbecco's modified Eagle's medium (DMEM, Gibco) containing 10% fetal calf serum (FBS, Hyclone, Logan, Utah), 1% glutamine (Gibco) and 1% penicillin/streptomycin (Gibco). Cells were identified as smooth muscle cells by their "hill and valley" growth pattern and by fluorescent staining with a monoclonal antibody specific for SMC μ-actin (Sigma). RASMC were used between passages 5 and 20 for all experiments. Test compounds were prepared in dimethylsulfoxide (DMSO) in order to achieve consistency in the vehicle and to ensure compound solubility. Appropriate DMSO controls were simultaneously evaluated with the test compounds.
# PDGF Receptor Autophosphorylation
# RASMC were grown to confluency in 100 mm dishes. Growth medium was removed and replaced with serum-free medium and cells were incubated at 37° C. for an additional 24 hours. Test compounds were then added directly to the medium and cells incubated for an additional 2 hours. After 2 hours, PDGF-BB was added at a final concentration of 30 ng/mL for 5 minutes at 37° C. to stimulated autophosphorylation of the PDGF receptor. Following growth factor treatment, the medium was removed, and cells were washed with cold phosphate-buffered saline and immediately lysed with 1 mL of lysis buffer (50 mM HEPES[pH 7.5], 150 mM NaCl, 10% glycerol, 1% Triton X-100, 1 mM EDTA, 1 mMEGTA, 50 mM NaF, 1 mM sodium orthovanadate, 30 mM p-nitrophenyl phosphate, 10 mM sodium pyrophosphate, 1 mM phenylmethyl sulfonyl fluoride, 10 μg/mL aprotinin, and 10 μg/mL leupeptin). Lysates were centrifuged at 10,000×g for 10 minutes. […] Following the incubation, protein-A-sepharose beads were added for 2 hours with continuous mixing, and immune complexes bound to the beads washed 4 times with 1 mL lysis wash buffer. Immune complexes were solubilized in 30 μL of Laemmli sample buffer and electrophoresed in 4-20% SDS polyacrylamide gels. Following electrophoresis, separated proteins were transferred to nitrocellulose and immunoblotted with anti-phosphotyrosine antiserum. […] IC50 values were generated from the densitometric data.
# [3] = target: T4, Human EGF receptor tyrosine kinase (Homo sapiens, UniProt P00533); assay: EGF receptor tyrosine kinase assay; assay type: biochemical; conditions: for inhibition at 50 µM: read-out: Inhibition of Protein Tyrosine Kinases, EGF, % Inhibition
# T4 construct: isolated from A431 epidermoid carcinoma cells; endogenous in cells; host or cells: A431 epidermoid carcinoma cells (Triton lysate, wheat germ agglutinin eluate)
# Protocol: Purification of Epidermal Growth Factor Receptor Tyrosine Kinase
# Human EGF receptor tyrosine kinase was isolated from A431 epidermoid carcinoma cells by the following methods. Cells were grown in roller bottles in 50% Delbuco's Modified Eagle and 50% HAM F-12 nutrient media (Gibco) containing 10% fetal calf serum. Approximately 10^9 cells were lysed in two volumes of buffer containing 20 mM 2-(4N-[2-hydroxyethyl]piperazin-1-yl)ethanesulfonic acid, pH 7.4, 5 mM ethylene glycol bis(2-aminoethyl ether)N,N,N',N'-tetraacetic acid, 1% Triton X-100, 10% glycerol, 0.1 mM sodium orthovanadate, 5 mM sodium fluoride, 4 mM pyrophosphate, 4 mM benzamide, 1 mM dithiothreitol, 80 μg/mL aprotinin, 40 μg/mL leupeptin, and 1 mM phenylmethylsulfonyl fluoride. After centrifugation at 25,000×g for 10 minutes, the supernatant was equilibrated for 2 hours at 4° C. with 10 mL of wheat germ agglutinin sepharose that was previously equilibrated with 50 mM Hepes, 10% glycerol, 0.1% Triton X-100 and 150 mM NaCl, pH 7.5, (equilibration buffer). Contaminating proteins were washed from the resin with 1M NaCl in equilibration buffer, and the enzyme was eluted with 0.5M N-acetyl-1-D-glucosamine in equilibration buffer.
# Determination of IC50 Values
# The reaction was terminated by the addition of 2 mL of 75 mM phosphoric acid and passed through a 2.5-cm phosphocellulose filter disc to bind the peptide. The filter was washed five times with 75 mM phosphoric acid and placed in a vial along with 5 mL of scintillation fluid (Ready gel Beckman).
# V-src kinase = V-src kinase assay; assay type: biochemical; conditions: at 50 μM
# Protocol: V-src and C-src Kinase Assays
# V-src or C-src kinase is purified from baculovirus infected insect cell lysates using an antipeptide monoclonal antibody directed against the N-terminal 2-17 amino acids. The antibody, covalently linked to 0.65-μm latex beads, is added to a suspension of insect cell lysis buffer comprised of 150 mM NaCl, 50 mM Tris pH 7.5, 1 mM DTT, 1% NP-40, 2 mM EGTA, 1 mM sodium vanadate, 1 mM PMSF, 1 μg/mL each of leupeptin, pepstatin, and aprotinin. Insect cell lysate containing either the c-src or v-src protein is incubated with these beads for 3-4 hours at 4° C. with rotation. At the end of the lysate incubation, the beads are rinsed 3 times in lysis buffer, resuspended in lysis buffer containing 10% glycerol, and frozen. These latex beads are thawed, rinsed three times in assay buffer which is comprised of 40 mM tris pH 7.5, 5 mM MgCl2, and suspended in the same buffer. In a Millipore 96-well plate with a 0.65 μm polyvinylidine membrane bottom are added the reaction components: 10-μL v-src or c-src beads, 10 μL of 2.5 mg/mL poly GluTyr substrate, 5 μM ATP containing 0.2 μCi labeled ^32 P-ATP, 5μL DMSO containing inhibitors or as a solvent control, and buffer to make the final volume 125 μL. The reaction is started at room temperature by addition of the ATP and quenched 10 minutes later by the addition of 125 μL of 30% TCA, 0.1M sodium pyrophosphate for 5 minutes on ice. The plate is then filtered and the wells washed with two 250-μL aliquots of 15% TCA, 0.1M pyrophosphate. The filters are punched, counted in a liquid scintillation counter, and the data examined for inhibitory activity in comparison to a known inhibitor such as erbstatin. The method is described more fully in J. Med. Chem., 37:598-609 (1994).
compound,measurement,setting,value
"CCNC(=O)Nc1nc2nc(NCCCN(CC)CC)ncc2cc1-c1c(Cl)cccc1Cl [Example 112, 1-[6-(2,6-Dichlorophenyl)-2-(3-diethylamino-propyl-amino)-pyrido[2,3-d]pyrimidin-7-yl]-3-ethyl-urea]",IC50,[1],1.26 µM
same,IC50,[2],0.128 µM
same,IC50,C-src kinase,0.077 µM
same,IC50,PDGF receptor,1.08 µM
"CN1CCN(CCCNc2ncc3cc(-c4c(Cl)cccc4Cl)c(NC(=O)Nc4ccccc4)nc3n2)CC1 [Example 51, 1-{6-(2,6-Dichlorophenyl)-2-[3-(4-methyl-piperazin-1-yl)-propylamino]-pyrido[2,3-d]pyrimidin-7-yl}-3-phenyl-urea]",IC50,[1],0.573 µM
same,IC50,[2],0.084 µM
same,IC50,C-src kinase,0.1 µM
same,IC50,PDGF receptor,0.365 µM
"CN(C)C=Nc1ncc2cc(-c3c(Cl)cccc3Cl)c(NC(=O)NC(C)(C)C)nc2n1 [Example 79, N'-[7-(3-tert-Butylureido)-6-(2,6-dichlorophenyl)-pyrido[2,3-d]pyrimidin-2-yl]-N,N-dimethylformamidine]",IC50,[1],17.8 µM
same,IC50,[2],8.09 µM
same,inhibition at 50 µM,[3]; at 50 μM,60.9%
"CC(=O)Nc1ncc2cc(-c3c(Cl)cccc3Cl)c(NC(C)=O)nc2n1 [Example 7, N-[2-Acetylamino-6-(2,6-dichlorophenyl)-pyrido[2,3-d]pyrimidin-7-yl]-acetamide]",inhibition at 50 µM,[1],33.5%
same,IC50,[2],17.9 µM
same,inhibition at 50 µM,[3]; at 50 μM,25.1%
same,"Inhibition of Protein Tyrosine Kinases, V-src, % Inhibition",V-src kinase,7.6%
same,IC50,C-src kinase,2.3 µM
"CC(C)(C)NC(=O)Nc1nc2nc(NCCCN3CCOCC3)ncc2cc1-c1c(Cl)cccc1Cl [Example 59, 1-tert-Butyl-3-[6-(2,6-dichlorophenyl)-2-(3-morpholin-4-yl-propylamino)-pyrido[2,3-d]pyrimidin-7-yl]-urea]",IC50,[1],0.838 µM
same,IC50,[2],0.072 µM
same,IC50,C-src kinase,0.085 µM
same,IC50,PDGF receptor,1.19 µM
"Nc1cc2nc(N)c(-c3ccccc3Cl)cc2cn1 [Example 17, 3-(2-Chlorophenyl)-[1,6]naphthyridine-2,7-diamine]",IC50,[1],27 µM
same,IC50,[2],4.5 µM
same,IC50,"[3]; read-out: Inhibition of Protein Tyrosine Kinases, EGF, IC50",7.22 µM
same,"Inhibition of Protein Tyrosine Kinases, V-src, % Inhibition",V-src kinase,5.3%
same,IC50,C-src kinase,2.76 µM
CCNC(=O)Nc1nc2nc(NCCCN(CC)CC)ncc2cc1-c1c(C)cccc1C [Example 115],IC50,[1],2.63 µM
same,IC50,[2],1.24 µM
same,IC50,C-src kinase,0.024 µM
same,IC50,PDGF receptor,5.13 µM
"Cc1ccccc1-c1cc2cnc(NC(=O)NC(C)(C)C)nc2nc1NC(=O)NC(C)(C)C [Example 4, 1-tert-Butyl-3-[7-(3-tert-butylureido)-6-o-tolyl-pyrido[2,3-d]pyrimidin-2-yl]urea]",inhibition at 50 µM,[1],31.9%
same,inhibition at 50 µM,"[2]; at 50 μM, read-out: Inhibition of Protein Tyrosine Kinases, FGF, % Inhibition",21.5%
same,inhibition at 50 µM,[3]; at 50 μM,36.6%
same,"Inhibition of Protein Tyrosine Kinases, V-src, % Inhibition",V-src kinase,3.1%
same,inhibition at 50 µM,"C-src kinase; at 50 μM, read-out: Inhibition of Protein Tyrosine Kinases, C-src, % Inhibition",33.6%
"1-[2-Amino-6-(2,6-dichlorophenyl)-pyrido[2,3-d]pyrimidin-7-yl]-3-(3-morpholin-4-yl-propyl)-thiourea [Example 23]",IC50,[1],4.51 µM
same,IC50,[2],0.291 µM
same,"Inhibition of Protein Tyrosine Kinases, EGF, % Inhibition",[3]; at 50 μM,104.8%
same,"Inhibition of Protein Tyrosine Kinases, V-src, % Inhibition",V-src kinase,10.2%
same,IC50,C-src kinase,0.613 µM
"CCN(CC)CCCNc1ncc2cc(-c3c(C)cccc3C)c(NC(=O)NC(C)(C)C)nc2n1 [Example 116, 1-tert-Butyl-3-[2-(3-diethylamino-propylamino)-6-(2,6-dimethyl-phenyl)-pyrido[2,3-d]pyrimidin-7-yl]-urea]",IC50,[1],0.804 µM
same,IC50,[2],0.335 µM
same,IC50,C-src kinase,0.098 µM
same,IC50,PDGF receptor,0.91 µM
"CN(C)CCCNc1ncc2cc(-c3c(Cl)cccc3Cl)c(NC(=O)NC(C)(C)C)nc2n1 [Example 28, 1-tert-Butyl-3-[6-(2,6-dichlorophenyl)-2-(3-dimethylamino-propylamino)-pyrido[2,3-d]pyrimidin-7-yl]-urea]",IC50,[1],0.676 µM
same,IC50,[2],0.075 µM
same,IC50,C-src kinase,0.117 µM
same,IC50,PDGF receptor,1.38 µM
"Nc1ncc2cc(-c3c(Cl)cccc3Cl)c(NC3=NCCO3)nc2n1 [Example 24, 2-[2-Amino-6-(2,6-dichlorophenyl)-pyrido[2,3-d]pyrimidin-7-yl]-amino-4,5-dihydro-oxazole]",IC50,[1],11.4 µM
same,IC50,[2],7.29 µM
same,inhibition at 50 µM,[3]; at 50 μM,58.3%
same,IC50,C-src kinase,0.214 µM
"CN(C)CCCN(C)c1ncc2cc(-c3c(Cl)cccc3Cl)c(NC(=O)NC(C)(C)C)nc2n1 [Example 69, 1-tert-Butyl-3-{6-(2,6-dichlorophenyl)-2-[(3-dimethyl-amino-propyl)-methyl-amino]-pyrido[2,3-d]pyrimidin-7-yl}-urea]",IC50,[1],15.6 µM
same,IC50,[2],1.96 µM
same,IC50,C-src kinase,4.66 µM
same,IC50,PDGF receptor,6.46 µM
"CC(C)NC(=O)Nc1nc2nc(N)ncc2cc1-c1c(Cl)cccc1Cl [Example 89, 1-[2-Amino-6-(2,6-dichlorophenyl)-pyrido[2,3-d]pyrimidin-7-yl]-3-isopropyl-urea]",IC50,[1],0.857 µM
same,IC50,[2],0.111 µM
same,IC50,C-src kinase,0.036 µM
same,IC50,PDGF receptor,1.63 µM
"CC(C)(C)NC(=O)Nc1ncc2cc(-c3c(Cl)cccc3Cl)c(NC(=O)NC(C)(C)C)nc2n1 [Example 2, 1-tert-Butyl-3-[7-(3-tert-butylureido)-6-(2,6-dichlorophenyl)-pyrido[2,3-d]pyrimidin-2-yl]urea]",IC50,[1],10.2 µM
same,IC50,[2],1.6 µM
same,inhibition at 50 µM,[3]; at 50 μM,52.3%
same,IC50,C-src kinase,19.5 µM
"CC(C)(C)NC(=O)Nc1nc2nc(N)ncc2cc1-c1c(Br)cccc1Br [Example 88, 1-[2-Amino-6-(2,6-dibromo-phenyl)-pyrido[2,3-d]pyrimidin-7-yl]-3-tert-butyl-urea]",IC50,[1],0.711 µM
same,IC50,[2],0.148 µM
same,inhibition at 50 µM,[3]; at 50 μM,34.4%
same,IC50,C-src kinase,0.213 µM
"CCN(CC)CCNc1ncc2cc(-c3c(Cl)cccc3Cl)c(NC(=O)NC(C)(C)C)nc2n1 [Example 66, 1-tert-Butyl-3-[6-(2,6-dichlorophenyl)-2-(2-diethyl-amino-ethylamino)-pyrido[2,3-d]pyrimidin-7-yl]-urea]",IC50,[1],5.19 µM
same,IC50,[2],1.28 µM
same,IC50,C-src kinase,3.42 µM
same,IC50,PDGF receptor,5.29 µM
"CCN(CC)CCCNc1ncc2cc(-c3c(Cl)cccc3Cl)c(NC(=O)NC(C)C)nc2n1 [Example 113, 1-[6-(2,6-Dichlorophenyl)-2-(3-diethylamino-propyl-amino)-pyrido[2,3-d]pyrimidin-7-yl]-3-isopropyl-urea]",IC50,[1],1.09 µM
same,IC50,[2],0.077 µM
same,IC50,C-src kinase,0.078 µM
same,IC50,PDGF receptor,1.1 µM
